Source: the NIST ThermoML archive (doi:10.1021/je401036f)

Experiment: xn = mol fraction of the nth substance listed
Conditions: 101 kPa, Liquid; for viscosity: Concentric cylinders viscometry; for mass density: Vibrating tube method

CC(O)CN (stereo not given) [1-amino-2-propanol] + CCC(C)O
Conditions | mass density [kg/m3] | viscosity [mPa·s]
288.15 K, x1 = 0.1003 | 823.697 | 5.068
288.15 K, x1 = 0.2005 | 837.759 | 5.97
288.15 K, x1 = 0.3 | 852.257 | 7.261
288.15 K, x1 = 0.3999 | 867.392 | 9.219
288.15 K, x1 = 0.5 | 882.695 | 11.68
288.15 K, x1 = 0.6001 | 898.243 | 14.95
288.15 K, x1 = 0.7 | 914.159 | 19.39
288.15 K, x1 = 0.8 | 930.494 | 25.16
288.15 K, x1 = 0.8999 | 947.198 | 32.94
288.15 K, x1 = 1 | 964.544 | 43.7
293.15 K, x1 = 0.1003 | 819.706 | 4.16
293.15 K, x1 = 0.2005 | 833.763 | 4.888
293.15 K, x1 = 0.3 | 848.265 | 5.949
293.15 K, x1 = 0.3999 | 863.403 | 7.373
293.15 K, x1 = 0.5 | 878.701 | 9.189
293.15 K, x1 = 0.6001 | 894.252 | 11.6
293.15 K, x1 = 0.7 | 910.183 | 14.8
293.15 K, x1 = 0.8 | 926.524 | 18.77
293.15 K, x1 = 0.8999 | 943.272 | 24.3
293.15 K, x1 = 1 | 960.598 | 31.68
298.15 K, x1 = 0.1003 | 815.665 | 3.45
298.15 K, x1 = 0.2005 | 829.72 | 4.048
298.15 K, x1 = 0.3 | 844.235 | 4.884
298.15 K, x1 = 0.3999 | 859.38 | 5.96
298.15 K, x1 = 0.5 | 874.691 | 7.338
298.15 K, x1 = 0.6001 | 890.255 | 9.121
298.15 K, x1 = 0.7 | 906.21 | 11.45
298.15 K, x1 = 0.8 | 922.526 | 14.41
298.15 K, x1 = 0.8999 | 939.29 | 18.35
298.15 K, x1 = 1 | 956.618 | 23.54
303.15 K, x1 = 0.1003 | 811.527 | 2.889
303.15 K, x1 = 0.2005 | 825.623 | 3.378
303.15 K, x1 = 0.3 | 840.158 | 4.059
303.15 K, x1 = 0.3999 | 855.316 | 4.898
303.15 K, x1 = 0.5 | 870.629 | 5.963
303.15 K, x1 = 0.6001 | 886.197 | 7.316
303.15 K, x1 = 0.7 | 902.141 | 9.136
303.15 K, x1 = 0.8 | 918.502 | 11.31
303.15 K, x1 = 0.8999 | 935.275 | 14.16
303.15 K, x1 = 1 | 952.612 | 17.89
308.15 K, x1 = 0.1003 | 807.298 | 2.444
308.15 K, x1 = 0.2005 | 821.466 | 2.86
308.15 K, x1 = 0.3 | 836.03 | 3.407
308.15 K, x1 = 0.3999 | 851.209 | 4.08
308.15 K, x1 = 0.5 | 866.532 | 4.929
308.15 K, x1 = 0.6001 | 882.111 | 5.962
308.15 K, x1 = 0.7 | 898.074 | 7.358
308.15 K, x1 = 0.8 | 914.445 | 9.005
308.15 K, x1 = 0.8999 | 931.229 | 11.12
308.15 K, x1 = 1 | 948.577 | 13.88
313.15 K, x1 = 0.1003 | 803.008 | 2.083
313.15 K, x1 = 0.2005 | 817.246 | 2.436
313.15 K, x1 = 0.3 | 831.847 | 2.887
313.15 K, x1 = 0.3999 | 847.055 | 3.435
313.15 K, x1 = 0.5 | 862.397 | 4.114
313.15 K, x1 = 0.6001 | 877.993 | 4.924
313.15 K, x1 = 0.7 | 893.97 | 6.014
313.15 K, x1 = 0.8 | 910.355 | 7.28
313.15 K, x1 = 0.8999 | 927.181 | 8.894
313.15 K, x1 = 1 | 944.515 | 10.96
318.15 K, x1 = 0.1003 | 798.619 | 1.795
318.15 K, x1 = 0.2005 | 812.957 | 2.094
318.15 K, x1 = 0.3 | 827.606 | 2.466
318.15 K, x1 = 0.3999 | 842.848 | 2.917
318.15 K, x1 = 0.5 | 858.232 | 3.47
318.15 K, x1 = 0.6001 | 873.856 | 4.113
318.15 K, x1 = 0.7 | 889.829 | 4.982
318.15 K, x1 = 0.8 | 906.227 | 5.972
318.15 K, x1 = 0.8999 | 923.11 | 7.219
318.15 K, x1 = 1 | 940.423 | 8.798
323.15 K, x1 = 0.1003 | 794.161 | 1.556
323.15 K, x1 = 0.2005 | 808.592 | 1.814
323.15 K, x1 = 0.3 | 823.3 | 2.124
323.15 K, x1 = 0.3999 | 838.586 | 2.499
323.15 K, x1 = 0.5 | 853.992 | 2.954
323.15 K, x1 = 0.6001 | 869.642 | 3.477
323.15 K, x1 = 0.7 | 885.646 | 4.164
323.15 K, x1 = 0.8 | 902.064 | 4.955
323.15 K, x1 = 0.8999 | 918.943 | 5.938
323.15 K, x1 = 1 | 936.293 | 7.166
328.15 K, x1 = 0.1003 | 789.608 | 1.358
328.15 K, x1 = 0.2005 | 804.15 | 1.576
328.15 K, x1 = 0.3 | 818.925 | 1.845
328.15 K, x1 = 0.3999 | 834.264 | 2.154
328.15 K, x1 = 0.5 | 849.702 | 2.529
328.15 K, x1 = 0.6001 | 865.379 | 2.969
328.15 K, x1 = 0.7 | 881.417 | 3.521
328.15 K, x1 = 0.8 | 897.859 | 4.163
328.15 K, x1 = 0.8999 | 914.764 | 4.947
328.15 K, x1 = 1 | 932.13 | 5.915
333.15 K, x1 = 0.1003 | 784.956 | 1.211
333.15 K, x1 = 0.2005 | 799.616 | 1.398
333.15 K, x1 = 0.3 | 814.474 | 1.637
333.15 K, x1 = 0.3999 | 829.873 | 1.897
333.15 K, x1 = 0.5 | 845.357 | 2.212
333.15 K, x1 = 0.6001 | 861.071 | 2.59
333.15 K, x1 = 0.7 | 877.143 | 3.042
333.15 K, x1 = 0.8 | 893.609 | 3.571
333.15 K, x1 = 0.8999 | 910.537 | 4.21
333.15 K, x1 = 1 | 927.93 | 4.986
